# Measured values published in paper PMC9697519, “New Theonellapeptolides from Indonesian Marine Sponge Theonella swinhoei as Anti-Austerity Agents” (Marine Drugs, 2022).
# Like-named read-outs stand apart in the source and are kept apart here. Where a SMILES comes first, the peptide text is derived from it. Bridges are numbered along the chain shown (N, C = ends). [ ]: non-standard residue; d: D form. The star is where a group is joined. dNMeaIle = CC[C@H](C)[C@@H](NC)C(=O)O; d(aIle) = CC[C@H](C)[C@@H](N)C(=O)O; NMeI = CC[C@H](C)[C@H](NC)C(=O)O; dNMeL = CN[C@H](CC(C)C)C(=O)O; NMeV = CN[C@H](C(=O)O)C(C)C; Methoxyacetyl = COCC(=O)*; βAla = NCCC(=O)O
# Legend:
# [1] = system: Bacillus cereus NBRC 15305; conditions: NBRC 15305, 22 h
# Experimental: (§1) Previously, three theonellapeptolide members capped with a unique acyl group at their N-termini such as methylsulfinylacetyl, methylsulfanylacetyl, and acetyl were isolated by Tsuda et al. from Okinawan marine sponge Theonella sp.. Furthermore, the antibacterial activity of these variants was evaluated against four bacterial and six fungal strains. […] To the best of our knowledge, there is no report on the antibacterial activity of theonellapeptolides with methoxyacetyl group. This encouraged us to investigate the antibacterial activity of 1–6 against the Gram-negative bacterium Escherichia coli JW5503 and the Gram-positive bacteria Bacillus cereus NBRC 15305 and Kocuria rhizophila NBRC 12708.
# (§2) After incubation for 22 h (30 °C), the obtained optical density was recorded using Tecan infinite® M200 plate reader at 600 nm to determine percent growth inhibition.
# Escherichia coli JW5503 = conditions: JW5503, 22 h
# Experimental: as §1, §2
# [2] = system: Kocuria rhizophila NBRC 12708; conditions: NBRC 12708, 22 h
# Experimental: as §1, §2
# [3] = system: HepG2 (human liver cancer cells); conditions: 24 h
# Experimental: (§3) Finally, the anti-austerity activity on two other different cancer cell lines was studied. Preferential cytotoxicity was assessed in a nutrient-deprived medium. Esumi et al. hypothesized that tolerance to nutrient deprivation as well as angiogenesis might be an important factor in tumor progression under hypovascular condition.
# (§4) Briefly, MIA PaCa-2, HepG2 and MCF-7 Cells (2 × 10^4 cells/well) were seeded in 96-well plates and incubated in fresh DMEM. The cells were washed with Dulbecco’s phosphate-buffered saline (PBS) before the medium was replaced with DMEM or NDM containing serial dilutions of the test samples. After 24 h of incubation, the cells were washed with PBS, and 100 μL of DMEM containing 10% WST-8 cell counting kit solution was added to each well. After 3 h of incubation, the absorbance was measured at 450 nm. Cell viability was calculated from the mean values for three wells. The preferential cytotoxicity was expressed as the concentration at which 50% of cells died preferentially in NDM (PC50).
# [4] = system: MCF-7 (human breast cancer cells); conditions: 24 h
# Experimental: as §3, §4
# [5] = system: human pancreatic cancer cell line MIA PaCa-2; conditions: 24 h
# Experimental: Data are presented as preferential cytotoxicity (PC50) values, which represent the concentration that kills 50% of cancer cells in a nutrient-deprived medium (NDM) without any toxicity in a nutrient-rich medium DMEM (Dulbecco’s Modified Eagle Medium).
# as §4
# Pancreatic cancer cells (MIA PaCa-2 cells) were kindly provided by Dr. Suresh Awale, an Associate Professor at Institute of Natural Medicine, University Toyama, Toyama, Japan. MIA PaCa-2 (RBRC-RCB2094), human pancreatic cancer cell lines were purchased from Riken BRC cell bank.
# MIA PaCa-2 cells = experiment: Morphological analysis, EB/AO double-staining; format: cell-based, human; conditions: 5 and 10 μM, NDM, 24 h, 24-well plate
# Experimental: Thus, more detailed studies were performed on the major compound theonellapeptolide IId (4). Its effect on morphology status of MIA PaCa-2 cells under starvation condition was studied using a double-staining assay with EB (ethidium bromide) and AO (acridine orange). The membranes of dead or dying cells are penetrated by EB and staining in red while living cells are stained by AO, a cell-membrane-permeable dye emitting bright green fluorescence. Both AO and EB stains are known as DNA-intercalating agents. During cell death, EB and AO enter into the cell after the integrity of the cell membrane is disrupted, which facilitates the emission of orange fluorescence. […] In Figure 6A, treatment with 4 led to a dose-dependent increase in EB-stained cells emitting red fluorescence and showing drastic alteration of cell morphology. […] Real-time anti-austerity potential tracking of 4 showing morphological changes in MIA PaCa-2 cells under NDM was monitored using a Nikon sCMOS camera oxford instrument, Hamamatsu Photonics/Ti-E, for 24 h. […]
# Figure 6 (A) Morphological changes of MIA PaCa-2 cells induced by 4 in a nutrient-deprived medium (NDM). […] The cells were stained with ethidium bromide (EB) and acridine orange (AO), and photographed in the fluorescence (red and green) under phase contrast modes using a Nikon sCMOS camera oxford instrument, Hamamatsu Photonics/Ti-E. (B) Structure of bioactive compound 4. […]
smiles,measurement,setting,value
"CC[C@H](C)[C@H]1C(=O)NCCC(=O)N[C@H]([C@@H](C)CC)C(=O)N(C)[C@@H](C(C)C)C(=O)N[C@@H](C)C(=O)NCCC(=O)N[C@H](CC(C)C)C(=O)N(C)[C@H]([C@@H](C)CC)C(=O)O[C@H](C)[C@H](NC(=O)[C@@H](CC(C)C)N(C)C(=O)[C@@H](NC(=O)COC)C(C)C)C(=O)NCCC(=O)N[C@H](CC(C)C)C(=O)N1C [Compound 4, theonellapeptolide IId] (Methoxyacetyl-V[dNMeL]T[βAla][dL][NMeI][βAla][d(aIle)][NMeV]A[βAla][dL][dNMeaIle]; ester 3-C)","MIC, BC",[1],> 66 µM
same,"MIC, EC",Escherichia coli JW5503,> 66 µM
same,"MIC, KR",[2],> 66 µM
same,IC50,"[3]; read-out: IC50 in DMEM, HepG2, nutrient-rich DMEM, WST-8, absorbance 450 nm, mean of three wells",> 100 µM
same,IC50,"[3]; read-out: PC50 in NDM, HepG2, preferential cytotoxicity, nutrient-deprived medium (NDM), WST-8, mean of three wells",> 100 µM
same,IC50,"[4]; read-out: IC50 in DMEM, MCF7, nutrient-rich DMEM, WST-8, absorbance 450 nm, mean of three wells",> 100 µM
same,IC50,"[4]; read-out: PC50 in NDM, MCF7, preferential cytotoxicity, nutrient-deprived medium (NDM), WST-8, mean of three wells",> 100 µM
same,IC50,"[5]; read-out: IC50 in DMEM, MIA PaCa-2, nutrient-rich DMEM, WST-8, absorbance 450 nm, mean of three wells",38.2 µM
same,IC50,"[5]; read-out: PC50 in NDM, MIA PaCa-2, preferential cytotoxicity, nutrient-deprived medium (NDM), WST-8, mean of three wells",7.8 µM
same,EB/AO staining of cells,MIA PaCa-2 cells,exclusive red EB
